According to article PMC6330446, “An integrated characterization of contractile, electrophysiological, and structural cardiotoxicity of Sophora tonkinensis Gapnep. in human pluripotent stem cell-derived cardiomyocytes” (Stem Cell Research & Therapy, 2019):
Entries after “also recorded” stand apart in the source; their conditions may differ. Where two headings read alike, the source gives them in different places.

What was measured:
hiPSC-CMs [1] = assay: Cardio-NLCS impedance and extracellular field potential (EFP) recording; assay type: cell-based, human; settings: for Amplitude (EFP): lowest concentration that demonstrated a significant change compare with the control group / Amplitude (IMP): lowest concentration that demonstrated a significant change compare with the control group / Base impedance: lowest concentration that demonstrated a significant change compare with the control group / Beat rate: lowest concentration that demonstrated a significant change compare with the control group / FPD: lowest concentration that demonstrated a significant change compare with the control group: 2, 10, 50 μM tested, recorded over 24 h; for Base impedance vs the control group (in words) / Contractile amplitude (amplitude of IMP) vs the control group (in words) / FPD value vs the control group (in words) / Potential amplitude (amplitude of EFP) vs the control group (in words) / Beat rate vs the control group (in words): 2, 10, 50 μM, 24 h recording
Description: (§1) After plating for about 3 days, CMs matured and began to beat. At this time, different compounds were added, and experiments were performed 24 h after treatment. The experiments were grouped as follows: control group (normal medium); matrine, oxymatrine, sophocarpine, and cytisine treatment (2, 10, 50 μM) groups; and aconitine treatment (1 μM) group. The doses of toxicity studies above were determined by the effective therapeutic doses reported and included or exceeded the therapeutic dose.
Cardio-NLCS (Optoprobe Science LTD, Canada) is a turn-key system for efficient impedance and extracellular field potential (EFP) measurements of cell monolayers or tissue preparations. NSP-96 dedicated for Cardio-NLCS should be coated with BD and the wells should not run dry before adding the cell suspension. After seeding, the medium was not exchanged for 12 h. Subsequently, the medium exchange was completed once a day for 2–3 days and every 2 days thereafter. Adding compounds required a complete solution exchange to allow for exact dosing. After the cells were allowed to re-equilibrate for 2–3 h, the 2× concentrated compounds were added by exchanging half of the medium per well. In this experiment, several indexes (base impedance, amplitude, beat rate, and FPD) were recorded at the start of the experiment (control), then every 5 min for 4 h after compound application and every 30 min the same as cell growth period detection, lasting a minimum of 24 h. In this way, both time and concentration-dependent effects could be monitored. Impedance and EFP data analyses were taken every 4 h after compound administrations.

hiPSC-CMs [2] = settings: for Cell viability (in words): alkaloids 2, 10, 50 μM, aconitine 1 μM
Description: as §1
CMs were incubated in 10% CCK-8 (Dojindo, Kumamoto, Japan) that was diluted in normal culture medium at 37 °C until a visual color conversion occurred. The absorbance of each well was measured using a microplate reader (Spectrafluor, TECAN, Sunrise, Austria) at 450 nm. Three individual experiments were performed. All samples were operated in duplicate.
A 96-well plate was used to seed hiPSC-CMs at a concentration of 5 × 10^4 cells per well. The cultured cells were treated with different concentrations of compounds and were incubated for another 48 h. CMs were digested with trypsin, and a small amount of cell suspension was added into the same amount of trypan blue solution. Countstar Automated Cell Counter IC1000 (Elite Life Sciences, Shanghai, China) was used to count the number of total and living cells. Data were presented as the mean ± SEM, n ≥ 3.

hiPSC-CMs [3] = tested on: hiPSC-CMs
Description: as §1
Cell treatment method was the same as above. After reaching the predetermined time, 120 μl of the supernatant of each well was taken for measuring LDH leakage using a commercially available kit (Beyotime Biotechnology, Shanghai, China) following the manufacturer’s instructions. Data were presented as the mean ± SEM, n ≥ 3.

hiPSC-CMs [4] = assay: SOD, GSH and MDA assay; assay type: cell-based, human; settings: 2, 10, 50 μM
Description: as §1
Cell treatment was the same as discussed in the “Compound treatment” section. After reaching the predetermined time, the cells were washed with 4 °C physiological saline and later were added into the lysate and appropriately pipetted. After centrifuging at 1.2 × 10^4 rpm for 5 min, the supernatant was obtained to measure the levels of SOD, GSH and MDA using a commercially available kit (Beyotime Biotechnology, Shanghai, China) following the manufacturer's instructions. Data were presented as the mean ± SEM, n ≥ 3.

hiPSC-CMs [5] = assay type: cell-based, human
Description: Cells were incubated in a maintaining medium containing 10 μM DCFH-DA (Beyotime Biotechnology, Shanghai, China) for 30 min at 37 °C in the dark. The measurement of ROS was performed with IncuCyte™ S3 ZOOM cell imaging system (Essen BioScience, Ann Arbor, MI). TissueQuest 6.0 was used for the quantitative analysis of ROS formation. Data were presented as the mean ± SEM, n ≥ 3.

GCaMP hESC-CMs = assay type: cell-based, human
Description: The hESC-CMs in this experiment can express the GCaMP reporter gene by gene editing, and green fluorescence marker can be observed by a fluorescence microscope. The fluorescence intensity is proportional to Ca^2+ concentration. The CMs were seeded into 96-well plates at 5000/well and were administered the same as above. The fluorescence intensities of hESC-CMs were monitored using an IncuCyte™ S3 ZOOM cell imaging system (Essen BioScience, Ann Arbor, MI). Data were presented as the mean ± SEM, n ≥ 3.

[6] = at the lowest effective concentration
[7] = hiPSC-CMs, 2, 10, 50 μM tested, 24 h

Row | Structure (SMILES) | Amplitude (EFP): lowest concentration that demonstrated a significant change compare with the control group (hiPSC-CMs [1]) [µM] | Amplitude (IMP): lowest concentration that demonstrated a significant change compare with the control group (hiPSC-CMs [1]) [µM] | Base impedance: lowest concentration that demonstrated a significant change compare with the control group (hiPSC-CMs [1]) [µM] | Beat rate: lowest concentration that demonstrated a significant change compare with the control group (hiPSC-CMs [1]) [µM] | FPD: lowest concentration that demonstrated a significant change compare with the control group (hiPSC-CMs [1]) | Base impedance vs the control group (in words) (hiPSC-CMs [1]) | Contractile amplitude (amplitude of IMP) vs the control group (in words) (hiPSC-CMs [1]) | FPD value vs the control group (in words) (hiPSC-CMs [1]) | Potential amplitude (amplitude of EFP) vs the control group (in words) (hiPSC-CMs [1]) | Amplitude (EFP): initial time of significant change compare with the control group (hiPSC-CMs [1]; [6]) [h] | Amplitude (IMP): initial time of significant change compare with the control group (hiPSC-CMs [1]; [6]) [h] | Base impedance: initial time of significant change compare with the control group (hiPSC-CMs [1]; [6]) [h] | Cell viability (in words) (hiPSC-CMs [2]; hiPSC-CMs, 24 h) | GSH activity (in words) (hiPSC-CMs [4]) | MDA level (in words) (hiPSC-CMs [4]) | SOD activity (in words) (hiPSC-CMs [4]) | Beat rate vs the control group (in words) (hiPSC-CMs [1]) | LDH leakage: lowest concentration that demonstrated a significant change compare with the control group (hiPSC-CMs [3]; hiPSC-CMs, 2, 10, 50 μM tested) [µM] | ROS level: lowest concentration that demonstrated a significant change compare with the control group (hiPSC-CMs [5]; hiPSC-CMs, 2, 10, 50 μM tested) [µM] | [Ca^2+]i: lowest concentration that demonstrated a significant change compare with the control group (GCaMP hESC-CMs; hESC-CMs, 2, 10, 50 μM tested) [µM] | other results
1 | O=c1cccc2n1C[C@@H]1CNC[C@H]2C1 [Cytisine, cytisine] | 50 | 10 | 50 | 10 | No effect | no change except 50 μM cytisine treatment | upward trend | no significant effect | upward trend | 16 | 4 | 12 | decreased dose-dependently | sharply lowered | rose | sharply lowered | – | – | – | – | Beat rate vs the control group (in words) (hiPSC-CMs [1]; listed as cytisine): slightly lowered; FPD value vs the control group (in words) (hiPSC-CMs [1]; listed as cytisine): remained stable in all groups; Cell viability: lowest concentration that demonstrated a significant change compare with the control group (hiPSC-CMs [2]; human): 50 µM; LDH leakage: lowest concentration that demonstrated a significant change compare with the control group (hiPSC-CMs [3]; human): 2 µM; ROS level: lowest concentration that demonstrated a significant change compare with the control group (hiPSC-CMs [5]; human): 50 µM; [Ca^2+]i: lowest concentration that demonstrated a significant change compare with the control group (GCaMP hESC-CMs; human): 50 µM
2 | O=C1CCC[C@@H]2[C@H]3CCCN4CCC[C@@H](CN12)[C@@H]34 [Matrine, matrine] | 50 | 10 | 10 | 2 | 50 µM | slightly lowered | upward trend | rose in the first half of matrine treatment | upward trend | 20 | 4 | 16 | decreased dose-dependently | sharply lowered | rose | sharply lowered | slightly lowered | 2 | 50 | 50 | Beat rate in comparison with the low-dose group (in words) (hiPSC-CMs [1]; higher concentrations 10, 50 μM): an increase in beat rate can be detected; Beat rate (in words) (hiPSC-CMs [1]; low, therapeutically relevant concentration 2 μM): a decrease in the beat rate can be detected; ROS fluorescence / ROS production (in words) (hiPSC-CMs [5]; hiPSC-CMs, high dose of alkaloids (50 μM), aconitine 1 μM): induced ROS production in excess; Fluorescence intensity of calcium, [Ca^2+]i (in words) (GCaMP hESC-CMs; GCaMP hESC-CMs, high dose of alkaloids (50 μM), aconitine 1 μM): increased significantly
3 | O=C1CCC[C@@H]2[C@H]3CCC[N+]4([O-])CCC[C@@H](CN12)[C@@H]34 (stereo partly shown) [Oxymatrine, oxymatrine] | 10 | – | – | 10 | No effect | no change, except 10 μM oxymatrine treatment | upward dose-dependent trend | remained stable in all groups | upward dose-dependent trend; also recorded: large fluctuation | 12 | 4 | – | decreased dose-dependently | sharply lowered | rose | sharply lowered | slightly lower; also recorded: large fluctuation | 2 | – | – | Beat rate: initial time of significant change compare with the control group (hiPSC-CMs [1]; [6]): 4 h; Cell viability: lowest concentration that demonstrated a significant change compare with the control group (hiPSC-CMs [2]; [7]): 10 µM
4 | O=C1C=CC[C@@H]2[C@H]3CCCN4CCC[C@@H](CN12)[C@@H]34 [Sophocarpine, sophocarpine] | 50 | 50 | 50 | 50 | 50 µM | no change | upward dose-dependent trend | large differences in the first 12 h and remained stable after 15 h of treatment | no change | 16 | – | 8 | decreased dose-dependently | sharply lowered | rose | sharply lowered | – | 2 | 10 | 50 | FPD after high-dose administration (in words) (hiPSC-CMs [1]; 50 μM): immediately increased in a jump; Beat rate: initial time of significant change compare with the control group (hiPSC-CMs [1]; [6]): 4 h; FPD: period of time of significant change compare with the control group (hiPSC-CMs [1]; [6]): 0 to 12 h; Cell viability: lowest concentration that demonstrated a significant change compare with the control group (hiPSC-CMs [2]; [7]): 10 µM
